The text below walks through data of patent publication US9085587B2, “Inhibitors of hepatitis C virus” (priority 2010, dated 2015).

What all share (assay type): cell-based
In one test the test system is HCV 2a. The experiment in a line: HCV 2a replicon assay (similar to the 1b replicon assay). Particulars: Hepatitis C virus; cell marked (HCV genotype 2a replicon); read-out: Inhibition of HCV genotype 2a replicon. How it is done: (§1) Compounds of the invention can inhibit multiple genotypes of HCV selected but not limited to 1a, 1b, 2a, 3a, and 4a. The EC50s are measured in the corresponding replicon assays that are similar to HCV 1b replicon assay as described above.
(§2) The biological activity against HCV 1b, 1a, or 2a is indicated as being *, **, ***, or ****, which corresponds to EC50 ranges of EC50>1000 nM, 100 nM<EC50≦1000 nM, 10 nM<EC50≦100 nM, or EC50≦10 nM, respectively. The biological activity against HCV NS5B C316Y or S365A mutant is indicated as being †, ††, or \\\, which corresponds to EC50 ranges of EC50>1000 nM, 200 nM<EC50≦1000 nM, […], respectively.
(In antiviral work, replicon cells carry a viral genome segment that copies itself.)

The next test addresses T1, HCV NS5B C316Y mutant (Hepatitis C virus genotype 1b, UniProt Q9WMX2, C2735Y).
T1 construct: HCV NS5B C316Y or S365A mutant as indicated; expressed in transfected cells
The experiment in a line: Activity against HCV NS5B C316Y mutant. The note with it: for EC50: read-out: Inhibiton of HCV NS5B C316Y mutant. How it is done:
as §2

The target of the next test is T2, HCV NS5B S365A mutant (Hepatitis C virus genotype 1b, UniProt Q9WMX2, S2784A).
T2 construct: HCV NS5B C316Y or S365A mutant as indicated; expressed in transfected cells
T2 sequence (Q9WMX2 2420-3010 S2784A): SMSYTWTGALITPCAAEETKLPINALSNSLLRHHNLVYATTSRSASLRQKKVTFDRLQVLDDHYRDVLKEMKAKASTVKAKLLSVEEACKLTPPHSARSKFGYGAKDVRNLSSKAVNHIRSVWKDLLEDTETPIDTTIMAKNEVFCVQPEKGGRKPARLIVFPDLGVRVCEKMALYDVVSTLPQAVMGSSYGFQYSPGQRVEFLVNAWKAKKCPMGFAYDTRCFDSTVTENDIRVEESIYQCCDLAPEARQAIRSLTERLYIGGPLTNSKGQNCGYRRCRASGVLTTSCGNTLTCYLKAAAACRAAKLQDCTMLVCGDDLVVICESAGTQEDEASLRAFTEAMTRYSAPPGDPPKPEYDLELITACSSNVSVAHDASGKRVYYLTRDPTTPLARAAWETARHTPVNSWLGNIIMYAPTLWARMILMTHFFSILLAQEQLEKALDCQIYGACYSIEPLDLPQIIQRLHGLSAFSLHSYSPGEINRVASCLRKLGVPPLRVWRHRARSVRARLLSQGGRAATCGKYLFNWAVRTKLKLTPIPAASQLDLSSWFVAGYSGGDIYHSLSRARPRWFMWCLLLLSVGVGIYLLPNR
The test can be described thus: Activity against HCV NS5B S365A mutant. Particulars: for EC50: read-out: Inhibiton of HCV NS5B S365A mutant. The method, then: as §2

In test [1] the test system is HCV 1b replication (bicistronic genotype 1b replicon in Huh 7 cells). The experiment in a line: HCV 1b replicon assay (1b_Huh-Luc/Neo-ET cell line, luciferase readout). Particulars: Hepatitis C virus, Huh-7; numeric EC50; genotype 1b replicon; read-out: Inhibition of HCV genotype 1b replicon (EC50). The method, then:
Biological activity of the compounds of the invention was determined using an HCV replicon assay. The 1b_Huh-Luc/Neo-ET cell line persistently expressing a bicistronic genotype 1b replicon in Huh 7 cells was obtained from ReBLikon GMBH. This cell line was used to test compound inhibition using luciferase enzyme activity readout as a measurement of compound inhibition of replicon levels.
On Day 1 (the day after plating), each compound was added in triplicate to the cells. Plates were incubated for 72 hours prior to running the luciferase assay. Enzyme activity was measured using a Bright-Glo Kit (cat. number E2620) manufactured by Promega Corporation. The following equation was used to generate a percent control value for each compound. % Control=(Average Compound Value/Average Control)*100
The EC50 value was determined using GraphPad Prism and the following equation: Y=Bottom+(Top-Bottom)/(1+10^((Log IC50−X)*HillSlope))
EC50 values of compounds were repeated several times in the replicon assay.

The subject of a further test is HCV 1a. The test can be described thus: HCV 1a replicon assay (similar to the 1b replicon assay). Particulars: Hepatitis C virus; cell marked (HCV genotype 1a replicon); read-out: Inhibition of HCV genotype 1a replicon. The method, then:
as §1, §2

T1 sequence (Q9WMX2 2420-3010 C2735Y): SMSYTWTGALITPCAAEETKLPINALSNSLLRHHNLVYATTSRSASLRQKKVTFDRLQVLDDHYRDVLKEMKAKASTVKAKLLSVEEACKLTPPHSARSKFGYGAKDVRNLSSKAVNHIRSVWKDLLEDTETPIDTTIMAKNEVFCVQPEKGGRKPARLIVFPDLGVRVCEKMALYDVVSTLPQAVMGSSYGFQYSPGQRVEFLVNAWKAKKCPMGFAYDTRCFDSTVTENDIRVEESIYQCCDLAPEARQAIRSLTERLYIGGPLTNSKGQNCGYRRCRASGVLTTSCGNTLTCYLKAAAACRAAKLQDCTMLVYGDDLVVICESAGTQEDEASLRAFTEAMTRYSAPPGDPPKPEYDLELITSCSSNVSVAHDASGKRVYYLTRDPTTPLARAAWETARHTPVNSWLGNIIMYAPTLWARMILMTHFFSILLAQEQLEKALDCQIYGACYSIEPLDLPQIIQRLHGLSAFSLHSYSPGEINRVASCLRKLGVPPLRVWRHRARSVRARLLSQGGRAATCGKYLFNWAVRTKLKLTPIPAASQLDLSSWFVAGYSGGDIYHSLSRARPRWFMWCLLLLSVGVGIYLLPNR

As to `CNC(=O)c1c(-c2ccc(F)cc2)nc2cc3c(cn12)C(C)=CCCN3S(C)(=O)=O` [Compound B62], the EC50 with HCV 2a was above 1000 nM.
With `CNC(=O)c1c(-c2ccc(F)cc2)oc2cc3c(cc12)[C@H](C)CCCN3S(C)(=O)=O` (single isomer, unassigned) [Compound B15], the “Inhibiton of HCV NS5B C316Y mutant” value at HCV NS5B C316Y mutant is recorded as “†††”. The “Inhibiton of HCV NS5B S365A mutant” value on HCV NS5B S365A mutant is recorded as “†††”. Besides, in test [1], the EC50 came out at 5.5 nM.
Regarding `CNC(=O)c1c(-c2ccc(F)cc2)oc2cc3c(cc12)[C@H](C)OC(C)(C)CN3S(C)(=O)=O` (single isomer, unassigned) [Compound B184], the results for the EC50 on HCV NS5B C316Y mutant and at HCV NS5B S365A mutant were above 1000 nM and 200 to 1000 nM, respectively.
The matching figures for `CNC(=O)c1c(-c2ccc(F)cc2)oc2cc3c(cc12)[C@H](C)OC1(CC1)CN3S(C)(=O)=O` (single isomer, unassigned) [Compound B193]: 200 to 1000 nM and 200 to 1000 nM.
Take `CNC(=O)c1c(-c2ccc(F)cc2)oc2cc3c(cc12)C(C)N(CCO)CCN3S(C)(=O)=O` (centres unmarked) [Compound B145]: on HCV NS5B S365A mutant, the EC50 is 200 to 1000 nM.
As for `C=C1CCCCN(S(C)(=O)=O)c2cc3oc(-c4ccc(F)cc4)c(C(=O)NC)c3cc21` [Compound B75], in the test with HCV 2a, the EC50 lay in the range of 100 to 1000 nM.
Consider `CS(=O)(=O)N1CCCCc2cc3c(-c4ncc[nH]4)c(-c4ccc(F)cc4)oc3cc21` [Compound B67], for which the EC50 on HCV NS5B S365A mutant lay within 200 to 1000 nM.
Consider `CNC(=O)c1c(-c2ccc(Oc3ccc(F)cc3)cc2)oc2cc3c(cc12)[C@H](C)OC1(CC1)CN3S(C)(=O)=O` (single isomer, unassigned) [Compound B187], for which the EC50 on HCV NS5B C316Y mutant and on HCV NS5B S365A mutant was above 1000 nM in each case.
In the case of `CN(C)CCNC(=O)c1c(-c2ccc(F)cc2)oc2cc3c(cc12)CCCCN3S(C)(=O)=O` [Compound B42], the EC50 with HCV 2a was above 1000 nM.
`CC1c2cc3c(-c4ncc[nH]4)c(-c4ccc(F)cc4)oc3cc2N(S(C)(=O)=O)CCN1C` (centres unmarked) [Compound B171]: the EC50 at HCV NS5B S365A mutant was 200 to 1000 nM.
Consider `CNC(=O)c1c(-c2ccc(F)cc2)oc2cc3c(cc12)C=CCCN3S(C)(=O)=O` [Compound B12], for which the EC50 with HCV 2a fell in the range of 100 to 1000 nM.
Take `CNC(=O)c1c(-c2ccc(F)cc2)oc2cc3c(cc12)/C=C\CCCN3S(C)(=O)=O` [Compound B114]: the EC50 in the test on HCV 1a was in the range of 100 to 1000 nM.
For the molecule `CNC(=O)c1c(-c2ccc(F)cc2)oc2cc3c(cc12)[C@H](C)N(C)C(=O)CN3S(C)(=O)=O` (single isomer, unassigned) [Compound B179], the EC50 on HCV NS5B S365A mutant fell in the range of 200 to 1000 nM.
For the molecule `CS(=O)(=O)N1CCCCc2cc3c(C(=O)NCC#N)c(-c4ccc(F)cc4)oc3cc21` [Compound B43], the EC50 in the test with HCV 2a was above 1000 nM.
Regarding `CNC(=O)c1c(-c2ccc(Oc3ccc(F)cc3)cc2)oc2cc3c(cc12)[C@H](C)OC(C)(C)CN3S(C)(=O)=O` (single isomer, unassigned) [Compound B176], the EC50 on HCV NS5B C316Y mutant and at HCV NS5B S365A mutant was 200 to 1000 nM in each case.
For the molecule `CN(C)C(=O)c1c(-c2ccc(F)cc2)oc2cc3c(cc12)CCCCN3S(C)(=O)=O` [Compound B14], in the test with HCV 2a, the EC50 was above 1000 nM.
As for `CNC(=O)c1c(-c2ccc(F)cc2)oc2cc3c(cc12)[C@H](C)OCCN3S(C)(=O)=O` [Compound B45], at HCV NS5B C316Y mutant, the “Inhibiton of HCV NS5B C316Y mutant” value is recorded as “†††”. Besides, the “Inhibiton of HCV NS5B S365A mutant” value at HCV NS5B S365A mutant is “†††”. Further, the EC50 in test [1] came to 3 nM.
On to `CS(=O)(=O)N1CCCCc2cc3c(C(=O)NC4CC4)c(-c4ccc(F)cc4)oc3cc21` [Compound B41], for which the EC50 with HCV 2a was above 1000 nM.
The same measure, in the same setting: next, `C=C1CCCN(S(C)(=O)=O)c2cc3nc(-c4ccc(F)cc4)c(C(=O)NC)n3cc21` [Compound B61]: above 1000 nM.
For the molecule `CNC(=O)c1c(-c2ccc(F)cc2)oc2cc3c(cc12)[C@@H](C)OCCN3S(C)(=O)=O` [Compound B44], the EC50 with HCV 2a lay within 100 to 1000 nM.
On the same count and under the same terms, next, `CS(=O)(=O)N1CCCCc2cc3c(C(N)=O)c(-c4ccc(F)cc4)oc3cc21` [Compound B13]: above 1000 nM.
